19 molecules from US10576062B2, “Carbamoyloxymethyl triazole cyclohexyl acids as LPA antagonists” (Bristol-Myers Squibb Company, priority 2016, dated 2020) can be followed below.

T1 sequence (Q92633 whole entry): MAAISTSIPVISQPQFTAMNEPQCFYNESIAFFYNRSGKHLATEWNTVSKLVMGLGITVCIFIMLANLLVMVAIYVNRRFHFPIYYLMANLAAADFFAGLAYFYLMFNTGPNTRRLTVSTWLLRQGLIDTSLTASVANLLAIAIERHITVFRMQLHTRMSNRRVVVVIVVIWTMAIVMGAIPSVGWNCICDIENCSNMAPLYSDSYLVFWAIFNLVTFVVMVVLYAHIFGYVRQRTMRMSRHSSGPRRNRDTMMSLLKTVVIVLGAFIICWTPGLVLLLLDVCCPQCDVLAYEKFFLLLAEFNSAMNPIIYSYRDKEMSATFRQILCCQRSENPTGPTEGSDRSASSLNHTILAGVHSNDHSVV

This assay addresses T1, human LPA1 (Homo sapiens, UniProt Q92633).
T1 construct: expressed in transfected cells; host or cells: Chinese hamster ovary (CHO) cells
Kind of assay: LPA1 functional antagonist assay (LPA-induced calcium flux). Type of assay: cell-based. The settings on record: read-out: hLPA1 IC50. The method, boiled down: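 CHO cells overexpressing human LPA1, loaded with calcium dye 30 min at 37° C, were preincubated 20 min at room temperature with compound (0.08 nM–5 μM, 0.5% DMSO) in HBSS/20 mM HEPES/0.1% fatty acid-free BSA.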
Take `Cc1nc(-c2nnn(C)c2COC(=O)N(C)Cc2ccccc2F)ccc1O[C@H]1CCC[C@H](C(=O)O)C1` [Example 98, (1S,3S)-3-((6-(5-((((2-fluorobenzyl)(methyl)carbamoyl)oxy)methyl)-1-methyl-1H-1,2,3-triazol-4-yl)-2-methylpyridin-3-yl)oxy)cyclohexane-1-carboxylic acid]: the IC50 worked out at 19 nM.
The value for `Cc1nc(-c2nnn(C)c2COC(=O)N(C)C2(c3ccccc3)CC2)ccc1O[C@H]1CCC[C@H](C(=O)O)C1` [Example 100, (1S,3S)-3-((2-methyl-6-(1-methyl-5-(((methyl(1-phenylcyclopropyl)carbamoyl)oxy)methyl)-1H-1,2,3-triazol-4-yl)pyridin-3-yl)oxy)cyclohexane-1-carboxylic acid] was 70 nM; that for `Cc1nc(-c2nnn(C)c2COC(=O)N(C)CCC(F)(F)F)ccc1O[C@H]1CCC[C@H](C(=O)O)C1` [Example 101, (1S,3S)-3-((2-methyl-6-(1-methyl-5-(((methyl(3,3,3-trifluoropropyl)carbamoyl)oxy)methyl)-1H-1,2,3-triazol-4-yl)pyridin-3-yl)oxy)cyclohexane-1-carboxylic acid] was 49 nM; that for `Cc1nc(-c2nnn(C)c2COC(=O)N(C)C23CC(C2)C3)ccc1O[C@H]1CCC[C@H](C(=O)O)C1` [Example 102, (1S,3S)-3-((6-(5-(((bicyclo[1.1.1]pentan-1-yl(methyl)carbamoyl)oxy)methyl)-1-methyl-1H-1,2,3-triazol-4-yl)-2-methylpyridin-3-yl)oxy)cyclohexane-1-carboxylic acid] was 53 nM.
For the molecule `Cc1nc(-c2nnn(C)c2COC(=O)N(C)CCc2ccccc2)ccc1O[C@H]1CCC[C@H](C(=O)O)C1` [Example 103, (1S,3S)-3-((2-methyl-6-(1-methyl-5-(((methyl(phenethyl)carbamoyl)oxy)methyl)-1H-1,2,3-triazol-4-yl)pyridin-3-yl)oxy)cyclohexane-1-carboxylic acid], the IC50 amounted to 119 nM.
For `CCCN(C)C(=O)OCc1c(-c2ccc(O[C@H]3CCC[C@H](C(=O)O)C3)c(C)n2)nnn1C` [Example 104, (1S,3S)-3-((2-methyl-6-(1-methyl-5-(((methyl(propyl)carbamoyl)oxy)methyl)-1H-1,2,3-triazol-4-yl)pyridin-3-yl)oxy)cyclohexane-1-carboxylic acid], the half-inhibitory concentration (IC50) came out at 19 nM.
With `Cc1nc(-c2nnn(C)c2COC(=O)NC23CC(C2)C3)ccc1O[C@H]1CCC[C@H](C(=O)O)C1` [Example 105, (1S,3S)-3-((6-(5-(((bicyclo[1.1.1]pentan-1-ylcarbamoyl)oxy)methyl)-1-methyl-1H-1,2,3-triazol-4-yl)-2-methylpyridin-3-yl)oxy)cyclohexane-1-carboxylic acid], the IC50 was found to be 576 nM.
In the case of `Cc1nc(-c2nnn(C)c2COC(=O)NCC2CCC2)ccc1O[C@H]1CCC[C@H](C(=O)O)C1` [Example 108, (1S,3S)-3-((6-(5-((((cyclobutylmethyl)carbamoyl)oxy)methyl)-1-methyl-1H-1,2,3-triazol-4-yl)-2-methylpyridin-3-yl)oxy)cyclohexane-1-carboxylic acid], the IC50 amounted to 108 nM.
`[2H]C([2H])([2H])n1nnc(-c2ccc(O[C@H]3CCC[C@H](C(=O)O)C3)cn2)c1COC(=O)N(C)CC1CC1` [Example 110, (1S,3S)-3-((6-(5-((((cyclopropylmethyl)(methyl)carbamoyl)oxy)methyl)-1-(methyl-d3)-1H-1,2,3-triazol-4-yl)pyridin-3-yl)oxy)cyclohexane-1-carboxylic acid]: the 50% inhibitory concentration (IC50) came out at 31 nM.
Turning to `[2H]C([2H])([2H])n1nnc(-c2ccc(O[C@H]3CCC[C@H](C(=O)O)C3)cn2)c1COC(=O)N(C)C1CCCC1` [Example 111, (1S,3S)-3-((6-(5-(((cyclopentyl(methyl)carbamoyl)oxy)methyl)-1-(methyl-d3)-1H-1,2,3-triazol-4-yl)pyridin-3-yl)oxy)cyclohexane-1-carboxylic acid], the IC50 came to 23 nM.
As to `[2H]C([2H])([2H])n1nnc(-c2ccc(O[C@H]3CCC[C@H](C(=O)O)C3)cn2)c1COC(=O)N(C)CCCC` [Example 112, (1S,3S)-3-((6-(5-(((butyl(methyl)carbamoyl)oxy)methyl)-1-(methyl-d3)-1H-1,2,3-triazol-4-yl)pyridin-3-yl)oxy)cyclohexane-1-carboxylic acid], the IC50 amounted to 17 nM.
The value for `CCN(CC1CCC1)C(=O)OCc1c(-c2ccc(O[C@H]3CCC[C@H](C(=O)O)C3)c(C)n2)nnn1C` [Example 113, (1S,3S)-3-((6-(5-((((cyclobutylmethyl)(ethyl)carbamoyl)oxy)methyl)-1-methyl-1H-1,2,3-triazol-4-yl)-2-methylpyridin-3-yl)oxy)cyclohexane-1-carboxylic acid] was 15 nM.
As for `Cc1nc(-c2nnn(C)c2COC(=O)N2CCOCC2)ccc1O[C@H]1CCC[C@H](C(=O)O)C1` [Example 114, (1S,3S)-3-((2-methyl-6-(1-methyl-5-(((morpholine-4-carbonyl)oxy)methyl)-1H-1,2,3-triazol-4-yl)pyridin-3-yl)oxy)cyclohexane-1-carboxylic acid], the IC50 is 643 nM.
Under `Cc1nc(-c2nnn(C)c2COC(=O)N(C)CC2CC2)ccc1O[C@H]1CCC[C@H](C(=O)O)C1` [Example 115, (1S,3S)-3-((6-(5-((((cyclopropylmethyl)(methyl)carbamoyl)oxy)methyl)-1-methyl-1H-1,2,3-triazol-4-yl)-2-methylpyridin-3-yl)oxy)cyclohexane-1-carboxylic acid] stands 18 nM; under `Cc1nc(-c2nnn(C)c2COC(=O)N(C)CC(C)C)ccc1O[C@H]1CCC[C@H](C(=O)O)C1` [Example 116, (1S,3S)-3-((6-(5-(((isobutyl(methyl)carbamoyl)oxy)methyl)-1-methyl-1H-1,2,3-triazol-4-yl)-2-methylpyridin-3-yl)oxy)cyclohexane-1-carboxylic acid], 29 nM.
The value for `Cc1nc(-c2nnn(C)c2COC(=O)N(C)CC2CCOCC2)ccc1O[C@H]1CCC[C@H](C(=O)O)C1` [Example 117, (1S,3S)-3-((2-methyl-6-(1-methyl-5-(((methyl((tetrahydro-2H-pyran-4-yl)methyl)carbamoyl)oxy)methyl)-1H-1,2,3-triazol-4-yl)pyridin-3-yl)oxy)cyclohexane-1-carboxylic acid] was 17 nM.
The value for `Cc1nc(-c2nnn(C)c2COC(=O)N(C)Cc2ccccn2)ccc1O[C@H]1CCC[C@H](C(=O)O)C1` [Example 118, (1S,3S)-3-((2-methyl-6-(1-methyl-5-(((methyl(pyridin-2-ylmethyl)carbamoyl)oxy)methyl)-1H-1,2,3-triazol-4-yl)pyridin-3-yl)oxy)cyclohexane-1-carboxylic acid] was 211 nM; that for `Cc1nc(-c2nnn(C)c2COC(=O)N(C)Cc2cccnc2)ccc1O[C@H]1CCC[C@H](C(=O)O)C1` [Example 120, (1S,3S)-3-((2-methyl-6-(1-methyl-5-(((methyl(pyridin-3-ylmethyl)carbamoyl)oxy)methyl)-1H-1,2,3-triazol-4-yl)pyridin-3-yl)oxy)cyclohexane-1-carboxylic acid] was 809 nM.
`Cc1nc(-c2nnn(C)c2COC(=O)N(C)Cc2ncccn2)ccc1O[C@H]1CCC[C@H](C(=O)O)C1` [Example 121, (1S,3S)-3-((2-methyl-6-(1-methyl-5-(((methyl(pyrimidin-2-ylmethyl)carbamoyl)oxy)methyl)-1H-1,2,3-triazol-4-yl)pyridin-3-yl)oxy)cyclohexane-1-carboxylic acid]: the concentration for half-maximal inhibition (IC50) stood at 1090 nM.
